Experimental data reported in patent publication US20070134688A1, “CALCULATED INDEX OF GENOMIC EXPRESSION OF ESTROGEN RECEPTOR (ER) AND ER-RELATED GENES” (THE BOARD OF REGENTS OF THE UNIVERSITY OF TEXAS SYSTEM, priority 2005, published 2007).

Legend:
ER-positive cancer = conditions: compared to placebo, cited from earlier work
[1] = tested on: ER-positive breast cancer; experiment: Distant relapse-free survival after adjuvant tamoxifen; assay type: in vivo, human; conditions: ER-positive patients on adjuvant tamoxifen
Experimental: Patients and Samples. […] At MDACC, pre-treatment fine needle aspiration (FNA) samples of primary breast cancer were obtained using a 23-gauge needle and the cells from 1-2 passes were collected into a vial containing 1 ml of RNAlater™ solution (Ambion, Austin Tex.) and stored at −80° C. until use, whereas archival frozen samples were evaluated from resected, metastatic, ER-positive breast cancer. All patients signed an informed consent for voluntary participation to collect samples for research. At other institutions, fresh tissue samples of surgically resected primary breast cancer were frozen in OCT compound and stored at −80° C.
Statistical Analysis of Distant relapse-free survival (DRFS). Distant relapse-free survival (DRFS) was defined as the interval from breast surgery until diagnosis of distant metastasis. Covariate effects on distant relapse risk after tamoxifen treatment were evaluated using log-rank test in multivariate Cox proportional hazards models stratified by institution. […] Confidence intervals of the survival estimate were calculated based on the Tsiatis variance estimates of the cumulative log-hazards (Therneau and Grambsch, 2000). […]

## N#Cc1ccc(C(c2ccc(C#N)cc2)n2cncn2)cc1 [letrozole]
ER-positive cancer; after 2.4 years, after 5 years of adjuvant tamoxifen
  relative reduction in deaths: 24%
ER-positive cancer; at 2.4 years
  absolute difference in recurrence or new primaries: 2.2%

## CC/C(=C(\c1ccccc1)c1ccc(OCCN(C)C)cc1)c1ccccc1 [tamoxifen]
[1]; SET index<2
  mean relapse-free survival at 10 years: 57.1%
[1]; SET index>5
  mean relapse-free survival at 10 years: 90.0%
